Literature values in patent US7767228B2, “Pharmaceutical composition for oral application and method for preparing thereof” (Cum Pharma Consulting Anstalt, priority 2004, dated 2010).

## O=C(C1CCCCC1)N1CC(=O)N2CCc3ccccc3C2C1 (stereo not shown) [Praziquantel, praziquantel]
  solubility in water: very low
